Data reported in patent publication US7119073B2, “Peptides and their use as inhibitors of hepatitis C virus ns3 protease” (Istituto Di Ricerche Di Biologia Molecolare P. Angeletti SpA, priority 2001, dated 2006).
Like-named read-outs stand apart in the source and are kept apart here.

Tests used:
[1] = target: T1, full length NS3 protein noncovalently complexed with the full-length NS4A cofactor protein (NS3/NS4A complex) (Hepatitis C virus genotype 1b, UniProt P26663); assay: Full-length NS3-NS4A heterodimer protein assay (Assay A); type: biochemical, hepatitis C virus (HCV)
T1 construct: full length NS3 protein spanning residues 1027–1657 of the HCV polyprotein
Protocol: Full-Length NS3-NS4A Heterodimer Protein Assay (Assay A)
(Gallinari, P., Paolini, C., Brennan, D., Nardi, C., Steinkühler, C. and De Francesco, R. Modulation of hepatitis C virus NS3 protease and helicase activities through the interaction with NS4A. Biochemistry 38, 5620–5632, 1999)
In this assay the full length NS3 protein spanning residues 1027–1657 of the HCV polyprotein, noncovalently complexed with the full-length NS4A cofactor protein (residues 1658–1711) was used. Assays were performed in 60 μl of a buffer containing 50 mM Hepes pH 7.5, 0.15 M NaCl, 0.1% (v/v) Triton X-100, 15% (v/v) glycerol, 10 mM DTT, 2 nM NS3/NS4A complex. To this assay mix 10 μM (final concentration) of a peptide substrate corresponding to the NS5AB cleavage site and having the sequence of the NS5A-NS5B peptide, were added. Incubation times at 23° C. were adjusted to obtain <10% conversion. Reactions were stopped by the addition of 40 μl of 1% TFA. Cleavage was determined by HPLC using a Merck-Hitachi chromatograph equipped with an autosampler. 80 μl samples were injected on a Lichrospher C18 reversed phase cartridge column (4×74 mm, 5 μm, Merck) and fragments were separated using a 10–40% acetonitrile gradient at 5%/min using a flow rate of 2.5 ml/min. Peak detection was done by monitoring both the absorbance at 220 nm and tryptophan fluorescence (λex=280 nm, λem=350 nm). Cleavage products were quantitated by integration of chromatograms with respect to appropriate standards. Kinetic parameters were calculated from nonlinear least-squares fit of initial rates as a function of substrate concentration with the help of a Kaleidagraph software, assuming Michaelis-Menten kinetics.
Ki values of peptide inhibitors were calculated from substrate titration experiments performed in the presence of increasing amounts of inhibitor. Experimental data sets were simultaneously fitted to eg.1 using a multicurve fit macro with the help of a Sigmaplot software: V=(VmaxS)/(Km([…])+S); (eq.1) Alternatively, Ki values were derived from IC50 values, calculated using a four-parameter logistic function, according to eq.2: IC50=(1+S/Km)Ki (eq.2)

[2] = target: T2, NS3 protease domain complexed to a modified form of the NS4A peptide (Pep4AK) (Hepatitis C virus genotype 1b, UniProt P26663); assay: HCV NS3 protease domain/NS4A cofactor peptide assay (Assay B); type: biochemical
T2 construct: NS3 protease domain (residues 1027–1206 of the HCV polyprotein)

[3] = NS3 protease domain/NS4A cofactor peptide assay, read-out: Assay B (IC50 class)
[4] = Table 1, NS3 protease domain/Pep4AK, 4AB peptide substrate, read-out: Assay B

T1 sequence (P26663 1027-1657): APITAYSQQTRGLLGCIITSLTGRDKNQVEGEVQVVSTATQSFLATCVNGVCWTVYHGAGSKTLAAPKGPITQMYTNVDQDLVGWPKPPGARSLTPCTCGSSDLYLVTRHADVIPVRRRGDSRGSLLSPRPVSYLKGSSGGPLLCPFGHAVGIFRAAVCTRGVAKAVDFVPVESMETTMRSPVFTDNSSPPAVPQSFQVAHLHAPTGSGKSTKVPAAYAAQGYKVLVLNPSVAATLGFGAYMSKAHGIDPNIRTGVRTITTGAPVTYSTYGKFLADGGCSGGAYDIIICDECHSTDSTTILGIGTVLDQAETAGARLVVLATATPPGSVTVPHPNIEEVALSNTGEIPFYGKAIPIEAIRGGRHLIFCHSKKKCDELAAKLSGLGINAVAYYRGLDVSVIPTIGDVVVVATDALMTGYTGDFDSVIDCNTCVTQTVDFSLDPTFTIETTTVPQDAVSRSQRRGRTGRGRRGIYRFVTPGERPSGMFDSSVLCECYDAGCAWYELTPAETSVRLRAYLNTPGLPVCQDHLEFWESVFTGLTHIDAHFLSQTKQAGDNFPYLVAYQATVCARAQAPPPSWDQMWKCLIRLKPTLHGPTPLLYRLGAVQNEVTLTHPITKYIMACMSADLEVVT
T1 sequence (P26663 1658-1711): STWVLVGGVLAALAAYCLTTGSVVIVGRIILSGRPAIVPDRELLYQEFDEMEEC
T2 sequence (P26663 1027-1206, other chains not shown): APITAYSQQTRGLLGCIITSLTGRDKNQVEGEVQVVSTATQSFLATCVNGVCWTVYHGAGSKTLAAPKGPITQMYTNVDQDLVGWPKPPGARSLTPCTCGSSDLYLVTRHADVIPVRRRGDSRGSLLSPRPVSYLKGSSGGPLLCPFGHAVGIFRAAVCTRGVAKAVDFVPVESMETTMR

Structure (SMILES)	IC50 [1] [µM]	IC50 [2, 3] [µM]	IC50 [2, 4] [µM]	further results
CC(C)COC(=O)NC(CCC(=O)O)C(=O)NC(CC(C)C)C(=O)NC(CC(F)F)C(=O)NCCc1ccc(C(=O)O)cc1Cl (centres unmarked) [Compound 180]	–	–	–	IC50 ([1]; Table 1, full-length NS3/NS4A, NS5A-NS5B peptide substrate, read-out: Assay A): < 10 µM; IC50 ([2]; Assay B, Table 1, NS3 protease domain/Pep4AK, 4AB peptide substrate): < 1 µM
CC(C)C[C@H](NC(=O)C1(Cc2ccsc2C(=O)O)Cc2ccccc2N1)C(=O)N[C@@H](CC(F)F)C(=O)NCCc1ccc(C(=O)O)cc1Cl (single isomer, unassigned) [Compound 705]	< 100	< 10	–	–
CC(C)C[C@H](NC(=O)C1(Cc2ccc(C(=O)O)s2)CCc2ccccc2N1)C(=O)N[C@@H](CC(F)F)C(=O)NCCc1ccc(C(=O)O)cc1Cl (single isomer, unassigned) [Compound 711b]	< 100	< 10	–	–
CC(C)CC(NC(=O)C(CCC(=O)O)NC(=O)OC(C)(C)C)C(=O)NC(CS)C(=O)NCCc1ccccc1Cl (centres unmarked) [Compound 114]	< 100	–	< 10	–
COc1ccc(Br)cc1CCNC(=O)C(CS)NC(=O)C(CC(C)C)NC(=O)C(CCC(=O)O)NC(=O)OCC(C)C (centres unmarked) [Compound 173]	< 100	–	< 10	–
CC(C)C[C@H](NC(=O)C1(Cc2ccsc2C(=O)O)Cc2ccccc2N1)C(=O)N[C@@H](CC(F)F)C(=O)NCCc1cccc(/C=C/C(=O)O)c1 (single isomer, unassigned) [Compound 706]	< 100	< 10	–	–
CC(C)COC(=O)NC(CCC(=O)O)C(=O)NC(CC(C)C)C(=O)NC(CS)C(=O)NCCc1ccc(CC(=O)O)cc1 (centres unmarked) [Compound 154]	< 100	–	< 10	–
CC(C)C[C@H](NC(=O)[C@H](CCC(=O)O)NS(=O)(=O)c1cccc2ccccc12)C(=O)N[C@@H](CS)C(=O)NCCc1ccccc1Cl [Compound 252]	< 10	–	–	IC50 ([2]; Assay B, Table 2, NS3 protease domain/Pep4AK): < 10 µM
CC(C)COC(=O)N[C@@H](CCC(=O)O)C(=O)N[C@@H](CC(C)C)C(=O)N[C@@H](CS)C(=O)NCCc1ccc(C(=O)O)cc1Cl [Compound 178]	< 10	–	< 1	–
CC(C)C[C@H](NC(=O)C1(Cc2cccc(C(=O)O)c2)CCc2ccccc2N1)C(=O)N[C@@H](CC(F)F)C(=O)NCCc1ccc(C(=O)O)cc1Cl (single isomer, unassigned) [Compound 712b]	< 100	< 10	–	–
